Laboratory results taken from patent publication US4826856A, “Calcium antagonistic dihydropyridine derivative” (Yason s.r.l., priority 1985, dated 1989).
Read-outs that look alike come from different tables or passages of the source.

Tests used:
SHR-SP = experiment: Effect on blood pressure in 6 month old SHR-SP (intraduodenal); assay type: in vivo, rat; parameters: DBP (dyastolic blood pressure) / MBP (mean blood pressure) / SBP (systolic blood pressure) / S-D (difference between systolic and diastolic blood pressure): unit not given here; conditions: 15 mg/kg intraduodenal
Text: Comparative effect of YS 201 on 3 month old rats and 6 month old SHR-SP

Sprague-Dawley rats = experiment: Ventricular arrhythmias during coronary artery ligation period; assay type: in vivo, rat; parameters: EBs, mean value of indices + SEM / VT, mean value of indices + SEM / VF, mean value of indices + SEM: scale not given here
Method: Ventricular arrhythmias after coronary artery ligation in the acute phase or during the period of re-circulation
Sprague-Dawley rats were subjected to ligation of the left coronary artery according to the method of Clark et al. in J. Pharmacol. Methods 3, 357-368, 1980. The drugs were administered by gastric tube 30 minutes before the ligation. By means of a continuous electrocardiographic recording, the ventricular arrhythmias such as ectopic beats (EB), ventricular tachycardia (VT), ventricular fibrillation (VF) for 30 minutes after ligation, were recorded.

post-oligoemic rats = experiment: Transient cerebral oligoemia in the rat, cerebral water, K+ and Ca++ content; assay type: in vivo
Method: Transient cerebral oligoemia in the rat
The method described by Borzeix in Circulation et Metabolisme du Cerveau 1, 63-79, John Libbey Eurotext Publ. […] The animals were treated by the oral route with the tested drugs twice a day, starting one hour after the ligation and for 3 days, in scalar doses.
The last dose, at the 71th hour after the occlusion, preceeded by one hour the sacrifice of the animal, whose brain was subjected to the determination of the H2 O, K^+ and Ca^++ content.

[1] = Pharmacokinetics and bioavailability in dogs; assay type: in vivo; conditions: dog; for half-life: hydrochloride
Method: YS 201 hydrochloride was intravenously and orally administered to dogs at 1 and 10 mg/kg respectively.

[2] = Bioavailability after oral administration in normal volunteers; assay type: in vivo, human; parameters: AUC: concentration or dose not given beside the values; conditions: for Tmax / Cmax / half-life / AUC: human, plasma, po; for Tmax / Cmax: oral 20 mg
Method: The study was performed in 4 male subjects aged 26-43 years. Pharmacokinetic studies were performed both after acute and repeated administrations. Acute administration […] Further venous blood samples were withdrawn 15-30 minutes and 1.0-1.5-2.0-4.0-6.0-8.0 hours after treatment. Multiple-doses administration […] Blood samples were withdrawn 2-4-8-12 hours after the last treatment.

CCOC(=O)C1=C(C)NC(C)=C(C(=O)OCCN2CCCCC2)C1c1cccc([N+](=O)[O-])c1 (stereo not drawn) [YS 201, ethyl-(β-piperidinoethyl)-2,6-dimethyl-4-(3-nitrophenyl)-1,4-dihydropyridine-3,5-dicarboxylate]
duration of blood pressure effect (SHR-SP): 4 h
DBP (dyastolic blood pressure) (SHR-SP; 0 min (baseline)): 17.5
HR (heart rate) (SHR-SP; 0 min (baseline)): 360 beats/min
MBP (mean blood pressure) (SHR-SP; 0 min (baseline)): 20.0
S-D (difference between systolic and diastolic blood pressure) (SHR-SP; 0 min (baseline)): 7.5
SBP (systolic blood pressure) (SHR-SP; 0 min (baseline)): 25.0
DBP (dyastolic blood pressure) (SHR-SP; +1 min): 17.0
HR (heart rate) (SHR-SP; +1 min): 360 beats/min
MBP (mean blood pressure) (SHR-SP; +1 min): 19.3
S-D (difference between systolic and diastolic blood pressure) (SHR-SP; +1 min): 7.0
SBP (systolic blood pressure) (SHR-SP; +1 min): 24.0
DBP (dyastolic blood pressure) (SHR-SP; +2 min): 15.0
HR (heart rate) (SHR-SP; +2 min): 360 beats/min
MBP (mean blood pressure) (SHR-SP; +2 min): 17.5
S-D (difference between systolic and diastolic blood pressure) (SHR-SP; +2 min): 7.5
SBP (systolic blood pressure) (SHR-SP; +2 min): 22.5
DBP (dyastolic blood pressure) (SHR-SP; +5 min): 16.0
HR (heart rate) (SHR-SP; +5 min): 360 beats/min
MBP (mean blood pressure) (SHR-SP; +5 min): 18.7
S-D (difference between systolic and diastolic blood pressure) (SHR-SP; +5 min): 8.0
SBP (systolic blood pressure) (SHR-SP; +5 min): 24.0
DBP (dyastolic blood pressure) (SHR-SP; +10 min): 13.5
HR (heart rate) (SHR-SP; +10 min): 360 beats/min
MBP (mean blood pressure) (SHR-SP; +10 min): 16.2
S-D (difference between systolic and diastolic blood pressure) (SHR-SP; +10 min): 8.0
SBP (systolic blood pressure) (SHR-SP; +10 min): 21.5
DBP (dyastolic blood pressure) (SHR-SP; +15 min): 13.0
HR (heart rate) (SHR-SP; +15 min): 360 beats/min
MBP (mean blood pressure) (SHR-SP; +15 min): 15.7
S-D (difference between systolic and diastolic blood pressure) (SHR-SP; +15 min): 8.0
SBP (systolic blood pressure) (SHR-SP; +15 min): 21.0
DBP (dyastolic blood pressure) (SHR-SP; +30 min): 11.0
HR (heart rate) (SHR-SP; +30 min): 340 beats/min
MBP (mean blood pressure) (SHR-SP; +30 min): 13.7
S-D (difference between systolic and diastolic blood pressure) (SHR-SP; +30 min): 8.0
SBP (systolic blood pressure) (SHR-SP; +30 min): 19.0
DBP (dyastolic blood pressure) (SHR-SP; +60 min): 10.0
HR (heart rate) (SHR-SP; +60 min): 300 beats/min
MBP (mean blood pressure) (SHR-SP; +60 min): 12.0
S-D (difference between systolic and diastolic blood pressure) (SHR-SP; +60 min): 7.0
SBP (systolic blood pressure) (SHR-SP; +60 min): 17.0
DBP (dyastolic blood pressure) (SHR-SP; +120 min): 11.5
HR (heart rate) (SHR-SP; +120 min): 360 beats/min
MBP (mean blood pressure) (SHR-SP; +120 min): 13.5
S-D (difference between systolic and diastolic blood pressure) (SHR-SP; +120 min): 6.0
SBP (systolic blood pressure) (SHR-SP; +120 min): 17.5
DBP (dyastolic blood pressure) (SHR-SP; +180 min): 8.0
HR (heart rate) (SHR-SP; +180 min): 400 beats/min
MBP (mean blood pressure) (SHR-SP; +180 min): 9.8
S-D (difference between systolic and diastolic blood pressure) (SHR-SP; +180 min): 5.5
SBP (systolic blood pressure) (SHR-SP; +180 min): 13.5
DBP (dyastolic blood pressure) (SHR-SP; +240 min): 6.0
HR (heart rate) (SHR-SP; +240 min): 420 beats/min
MBP (mean blood pressure) (SHR-SP; +240 min): 7.5
S-D (difference between systolic and diastolic blood pressure) (SHR-SP; +240 min): 4.5
SBP (systolic blood pressure) (SHR-SP; +240 min): 10.5
Death rate % (Sprague-Dawley rats; 0.75 mg/kg p.o.): 20%
EBs, mean value of indices + SEM (Sprague-Dawley rats; 0.75 mg/kg p.o.): 42.1 ± 9.70
VF % (Sprague-Dawley rats; 0.75 mg/kg p.o.): 60%
VF, mean value of indices + SEM (Sprague-Dawley rats; 0.75 mg/kg p.o.): 3.8 ± 1.77
VT, mean value of indices + SEM (Sprague-Dawley rats; 0.75 mg/kg p.o.): 1.3 ± 0.68
Death rate % (Sprague-Dawley rats; 1.5 mg/kg p.o.): 0%
EBs, mean value of indices + SEM (Sprague-Dawley rats; 1.5 mg/kg p.o.): 45.7 ± 6.18
VF % (Sprague-Dawley rats; 1.5 mg/kg p.o.): 20%
VF, mean value of indices + SEM (Sprague-Dawley rats; 1.5 mg/kg p.o.): 0.5 ± 0.49
VT, mean value of indices + SEM (Sprague-Dawley rats; 1.5 mg/kg p.o.): 1.9 ± 0.32
Death rate % (Sprague-Dawley rats; 3.0 mg/kg p.o.): 80%
EBs, mean value of indices + SEM (Sprague-Dawley rats; 3.0 mg/kg p.o.): 36.0 ± 9.11
VF % (Sprague-Dawley rats; 3.0 mg/kg p.o.): 100%
VF, mean value of indices + SEM (Sprague-Dawley rats; 3.0 mg/kg p.o.): 4.8 ± 1.41
VT, mean value of indices + SEM (Sprague-Dawley rats; 3.0 mg/kg p.o.): 1.6 ± 0.77
reduction of the index attributed to EBs and VT (Sprague-Dawley rats; whatever the dosage): ~2 fold
Cerebral content of H2O (post-oligoemic rats; 0.25 mg/kg p.o.): 79.2 ± 0.57%
Cerebral content of Ca++ (post-oligoemic rats; 0.5 mg/kg p.o.): 11.7 ± 3.00 mmol · kg^-1 dry weig
Cerebral content of H2O (post-oligoemic rats; 0.5 mg/kg p.o.): 78.3 ± 0.39%
Cerebral content of Ca++ (post-oligoemic rats; 1 mg/kg p.o.): 11.7 ± 5.53 mmol · kg^-1 dry weig
Cerebral content of H2O (post-oligoemic rats; 1 mg/kg p.o.): 77.8 ± 0.47%
Cerebral content of Ca++ (post-oligoemic rats; 3 mg/kg p.o.): 12.6 ± 3.89 mmol · kg^-1 dry weig
Cerebral content of H2O (post-oligoemic rats; 3 mg/kg p.o.): 78.8 ± 0.44%
decline in concentration ([1]; 1 mg/kg intravenous): typically biexponential
bioavailability ([1]; in vivo, 10 mg/kg, oral, read-out: average apparent bioavailable fraction): 19.4%
half-life ([1]; in vivo, 1 mg/kg intravenous, read-out: mean half-life of elimination): 1.47 h
half-life ([1]; in vivo, 10 mg/kg oral, read-out: mean apparent half-life of elimination): 2.47 h
AUC ([1]; in vivo, oral, 10 mg/kg, read-out: average AUC (converted)): 1080 ng·h/mL
Cmax ([1]; in vivo, oral, 10 mg/kg, read-out: maximum concentration (Cmax)): 284 ng/mL
decline of plasma profile (compartment analysis) ([2]; acute and repeated administration): declines in one phase
unchanged drug in plasma ([2]; after six hours, acute): still present in the plasma
Tmax ([2]; 20 mg, acute study, read-out: average T max (converted)): 1.5 h
Cmax ([2]; 20 mg, acute study, ±2.65 S.E., read-out: mean peak plasma level): 57.2 ng/mL
half-life ([2]; 20 mg, after acute administration, mean of 4 volunteers, read-out: T1/2 el. (converted)): 1.88 h
half-life ([2]; 20 mg, after acute administration, volunteer 1, read-out: T1/2 el. (converted)): 1.99 h
half-life ([2]; 20 mg, after acute administration, volunteer 2, read-out: T1/2 el. (converted)): 1.05 h
half-life ([2]; 20 mg, after acute administration, volunteer 3, read-out: T1/2 el. (converted)): 1.8 h
half-life ([2]; 20 mg, after acute administration, volunteer 4, read-out: T1/2 el. (converted)): 2.66 h
half-life ([2]; 20 mg, after acute administration, ±0.65 S.D., read-out: mean T1/2 el. / terminal half life (converted)): 1.8 h
Cmax ([2]; 20 mg, mean of 4 volunteers, read-out: C max): 64.8 ng/mL
Tmax ([2]; 20 mg, mean of 4 volunteers, read-out: T max): 1.5 h
Cmax ([2]; 20 mg, volunteer 1, read-out: C max): 56 ng/mL
Tmax ([2]; 20 mg, volunteer 1, read-out: T max): 1.5 h
Cmax ([2]; 20 mg, volunteer 2, read-out: C max): 55 ng/mL
Tmax ([2]; 20 mg, volunteer 2, read-out: T max): 1.5 h
Cmax ([2]; 20 mg, volunteer 3, read-out: C max): 65 ng/mL
Tmax ([2]; 20 mg, volunteer 3, read-out: T max): 2 h
Cmax ([2]; 20 mg, volunteer 4, read-out: C max): 83 ng/mL
Tmax ([2]; 20 mg, volunteer 4, read-out: T max): 1 h
half-life ([2]; after multiple-doses administration, mean of 4 volunteers, read-out: T1/2 el. (converted)): 4.29 h
half-life ([2]; after multiple-doses administration, volunteer 1, read-out: T1/2 el. (converted)): 4.11 h
half-life ([2]; after multiple-doses administration, volunteer 2, read-out: T1/2 el. (converted)): 4.44 h
half-life ([2]; after multiple-doses administration, volunteer 3, read-out: T1/2 el. (converted)): 4.12 h
half-life ([2]; after multiple-doses administration, volunteer 4, read-out: T1/2 el. (converted)): 4.49 h
half-life ([2]; after repeated administration, read-out: mean terminal half life (converted)): 4.29 h
AUC ([2]; mean of 4 volunteers): 252 ng·h/mL
AUC ([2]; volunteer 1): 219 ng·h/mL
AUC ([2]; volunteer 2): 181 ng·h/mL
AUC ([2]; volunteer 3): 269 ng·h/mL
AUC ([2]; volunteer 4): 388 ng·h/mL
plasma level relative to peak ([2]; multiple dose, four hours after administration): reduced to the half
plasma level of unchanged drug vs acute treatment at same time ([2]; multiple dose, two hours after last treatment): three times upper
unchanged drug in plasma ([2]; twelve hours after treatment, multiple dose): still present in the plasma
